Reference: PMC10378394 (Current Issues in Molecular Biology, 2023)

Key:
MC38 tumor tissue = assay: Immunofluorescence of tumor tissue; type: in vivo, mouse; details: MC38 tumors of treated mice
Method: Immunofluorescence staining was performed on tumor tissues. First, tumor tissue fixation was performed using 4% paraformaldehyde (Sigma-Aldrich, #HT5011). Next, heat-induced epitope retrieval was performed by incubating the tissue in 10 mM sodium citrate for 10 min. Subsequently, permeabilization was achieved by treating the tissue with 0.2% Triton X-100 (Sigma-Aldrich, #X100) for 5 min. To block nonspecific binding, the tissue was incubated in 5% skim milk for 40 min. Primary antibodies, including FOXP3 (eBioscience, San Diego, CA, USA, #11-5773-82), CD8 (eBioscience #53-0081-82), CD31 (Abcam, Cambridge, UK, #ab28364), F480 (Abcam #ab6640), CD163 (Abcam #ab182422), and CD206 (Abcam #ab64693), were used. The secondary antibodies used were FITC-conjugated AffiniPure F(ab’)2 fragment goat anti-rat IgG (H + L) (Jackson ImmunoResearch, West Grove, PA, USA, #112-096-003) and Cy3-conjugated AffiniPure F(ab’)2 fragment goat anti-rabbit IgG (H + L) (Jackson ImmunoResearch #111-166-003). The stained tissue was mounted using ProLong™ Gold Antifade Mountant with DAPI (Invitrogen, Waltham, MA, USA) #14-5773-82). Fluorescent images of the samples were captured using the Agilent BioTek Cytation 1 device. The images were analyzed using the Gen5 program (Version3, BioTek, Winooski, VT, USA) to extract relevant data and perform quantitative analysis.

IL-10 = assay: Western blot of IL-10; type: in vivo, mouse; details: normalized to β-actin
[1] = Tolerability in mouse xenograft experiments; type: in vivo
Method: Human-derived colorectal cancer cell lines, LS513, HCT-116, and HT29, were subcutaneously transplanted into 6-week-old female BALB/c nude mice to establish tumor models. Additionally, the mouse cancer cell line MC38 was subcutaneously transplanted into 6-week-old female and C57BL/6 mice to induce tumor formation. […]. The treatments were administered orally once daily for 2 weeks based on the growth rate observed in the vehicle group. Tumor volume was evaluated three times a week using the formula Tumor volume (TV) = (tumor short diameter ^2 × tumor long diameter)/2. The body weight of the mice was measured three times a week to assess potential toxicity in vivo. […]

BRAF = BRAF (Homo sapiens, UniProt P15056); assay: Eurofins kinase assay
Chain of BRAF (P15056 whole entry): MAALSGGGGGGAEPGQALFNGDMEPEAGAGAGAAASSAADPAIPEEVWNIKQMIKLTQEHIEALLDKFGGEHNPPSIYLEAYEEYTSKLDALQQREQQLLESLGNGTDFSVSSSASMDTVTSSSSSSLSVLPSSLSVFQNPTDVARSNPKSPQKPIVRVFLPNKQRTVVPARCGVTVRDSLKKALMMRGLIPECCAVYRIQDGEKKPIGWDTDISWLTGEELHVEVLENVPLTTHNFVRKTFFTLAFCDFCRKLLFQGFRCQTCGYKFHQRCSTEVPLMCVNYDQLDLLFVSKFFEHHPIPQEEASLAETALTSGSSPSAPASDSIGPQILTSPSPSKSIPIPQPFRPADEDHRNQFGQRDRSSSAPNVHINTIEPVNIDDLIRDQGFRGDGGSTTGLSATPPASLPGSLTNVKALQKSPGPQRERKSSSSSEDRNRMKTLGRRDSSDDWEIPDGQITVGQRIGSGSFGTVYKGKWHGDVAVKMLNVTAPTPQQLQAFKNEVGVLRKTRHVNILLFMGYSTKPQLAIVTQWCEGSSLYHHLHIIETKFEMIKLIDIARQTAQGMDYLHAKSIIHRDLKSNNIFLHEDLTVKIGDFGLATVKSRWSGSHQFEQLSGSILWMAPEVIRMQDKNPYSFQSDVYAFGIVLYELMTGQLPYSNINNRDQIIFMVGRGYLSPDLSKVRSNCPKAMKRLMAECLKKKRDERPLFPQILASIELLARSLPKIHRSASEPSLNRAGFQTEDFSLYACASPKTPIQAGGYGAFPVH

FGFR3(h) = FGFR3(h) (Homo sapiens, UniProt P22607); assay: Eurofins kinase assay
[2] = target: PI3Kinase(p110a(H1047R)/p85a)(m) (Mus musculus, UniProt P42337, H1047R); assay: Eurofins kinase assay
Yes(h) = Yes(h) (Homo sapiens, UniProt P07947); assay: Eurofins kinase assay
PKBα(h) = PKBα(h) (Homo sapiens, UniProt P31749); assay: Eurofins kinase assay
ATM(h) = ATM(h) (Homo sapiens, UniProt Q13315); assay: Eurofins kinase assay
CDK7/cyclinH/MAT1(h) = CDK7/cyclinH/MAT1(h) (Homo sapiens, UniProt P50613); assay: Eurofins kinase assay
Rsk3(h) = Rsk3(h) (Homo sapiens, UniProt Q15349); assay: Eurofins kinase assay
PKBγ(h) = PKBγ(h) (Homo sapiens, UniProt Q9Y243); assay: Eurofins kinase assay
Chain of PKBγ(h) (Q9Y243 whole entry): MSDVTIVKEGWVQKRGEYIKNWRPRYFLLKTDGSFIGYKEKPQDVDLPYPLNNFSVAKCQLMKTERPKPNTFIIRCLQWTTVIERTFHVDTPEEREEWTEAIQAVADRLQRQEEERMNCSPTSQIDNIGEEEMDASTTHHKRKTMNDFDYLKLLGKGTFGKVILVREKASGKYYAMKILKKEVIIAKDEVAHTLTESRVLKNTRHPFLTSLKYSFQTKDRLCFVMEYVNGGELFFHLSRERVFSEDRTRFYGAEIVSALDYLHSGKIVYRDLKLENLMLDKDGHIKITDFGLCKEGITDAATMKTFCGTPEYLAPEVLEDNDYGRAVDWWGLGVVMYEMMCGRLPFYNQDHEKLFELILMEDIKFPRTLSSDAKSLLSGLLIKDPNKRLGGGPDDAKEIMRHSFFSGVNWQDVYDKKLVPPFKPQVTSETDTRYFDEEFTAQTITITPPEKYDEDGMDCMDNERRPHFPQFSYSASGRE

MEK1(h) = MEK1(h) (Homo sapiens, UniProt Q02750); assay: Eurofins kinase assay
PKBβ(h) = PKBβ(h) (Homo sapiens, UniProt P31751); assay: Eurofins kinase assay
Chain of PKBβ(h) (P31751 whole entry): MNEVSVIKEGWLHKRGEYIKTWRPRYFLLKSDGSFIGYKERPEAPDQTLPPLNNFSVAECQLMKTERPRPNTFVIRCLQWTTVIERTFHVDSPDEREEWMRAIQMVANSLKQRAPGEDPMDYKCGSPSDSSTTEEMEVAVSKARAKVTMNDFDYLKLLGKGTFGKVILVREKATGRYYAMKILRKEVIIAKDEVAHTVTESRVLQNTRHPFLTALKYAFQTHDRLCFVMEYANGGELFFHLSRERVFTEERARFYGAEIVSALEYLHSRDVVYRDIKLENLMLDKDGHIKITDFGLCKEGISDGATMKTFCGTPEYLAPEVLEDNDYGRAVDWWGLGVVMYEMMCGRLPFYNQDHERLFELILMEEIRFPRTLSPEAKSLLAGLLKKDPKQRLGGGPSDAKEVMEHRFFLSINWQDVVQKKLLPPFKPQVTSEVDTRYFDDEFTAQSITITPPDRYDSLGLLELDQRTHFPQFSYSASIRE

PKCζ(h) = PKCζ(h) (Homo sapiens, UniProt Q05513); assay: Eurofins kinase assay
Chain of PKCζ(h) (Q05513 whole entry): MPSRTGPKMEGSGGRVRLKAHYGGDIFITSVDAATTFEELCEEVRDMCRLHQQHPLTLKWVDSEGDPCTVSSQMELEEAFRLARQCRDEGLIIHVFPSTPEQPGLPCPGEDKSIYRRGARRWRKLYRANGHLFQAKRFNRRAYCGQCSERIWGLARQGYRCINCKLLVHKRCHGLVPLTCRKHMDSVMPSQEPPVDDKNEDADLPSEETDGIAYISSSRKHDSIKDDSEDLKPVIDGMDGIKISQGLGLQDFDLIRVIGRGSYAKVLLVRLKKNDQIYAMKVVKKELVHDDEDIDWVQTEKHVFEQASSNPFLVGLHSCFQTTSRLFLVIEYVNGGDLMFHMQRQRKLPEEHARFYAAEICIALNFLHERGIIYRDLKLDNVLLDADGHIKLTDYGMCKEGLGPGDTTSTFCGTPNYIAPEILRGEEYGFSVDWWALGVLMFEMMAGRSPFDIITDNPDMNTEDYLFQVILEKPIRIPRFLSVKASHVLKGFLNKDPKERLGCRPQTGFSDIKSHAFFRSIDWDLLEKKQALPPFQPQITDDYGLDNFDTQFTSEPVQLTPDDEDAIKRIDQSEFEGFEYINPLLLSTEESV

CHK2(h) = CHK2(h) (Homo sapiens, UniProt O96017); assay: Eurofins kinase assay
Bmx(h) = Bmx(h) (Homo sapiens, UniProt P51813); assay: Eurofins kinase assay
MAPK1(h) = MAPK1(h) (Homo sapiens, UniProt P27361); assay: Eurofins kinase assay
PKCμ(h) = PKCμ(h) (Homo sapiens, UniProt Q15139); assay: Eurofins kinase assay
Chain of PKCμ(h) (Q15139 whole entry): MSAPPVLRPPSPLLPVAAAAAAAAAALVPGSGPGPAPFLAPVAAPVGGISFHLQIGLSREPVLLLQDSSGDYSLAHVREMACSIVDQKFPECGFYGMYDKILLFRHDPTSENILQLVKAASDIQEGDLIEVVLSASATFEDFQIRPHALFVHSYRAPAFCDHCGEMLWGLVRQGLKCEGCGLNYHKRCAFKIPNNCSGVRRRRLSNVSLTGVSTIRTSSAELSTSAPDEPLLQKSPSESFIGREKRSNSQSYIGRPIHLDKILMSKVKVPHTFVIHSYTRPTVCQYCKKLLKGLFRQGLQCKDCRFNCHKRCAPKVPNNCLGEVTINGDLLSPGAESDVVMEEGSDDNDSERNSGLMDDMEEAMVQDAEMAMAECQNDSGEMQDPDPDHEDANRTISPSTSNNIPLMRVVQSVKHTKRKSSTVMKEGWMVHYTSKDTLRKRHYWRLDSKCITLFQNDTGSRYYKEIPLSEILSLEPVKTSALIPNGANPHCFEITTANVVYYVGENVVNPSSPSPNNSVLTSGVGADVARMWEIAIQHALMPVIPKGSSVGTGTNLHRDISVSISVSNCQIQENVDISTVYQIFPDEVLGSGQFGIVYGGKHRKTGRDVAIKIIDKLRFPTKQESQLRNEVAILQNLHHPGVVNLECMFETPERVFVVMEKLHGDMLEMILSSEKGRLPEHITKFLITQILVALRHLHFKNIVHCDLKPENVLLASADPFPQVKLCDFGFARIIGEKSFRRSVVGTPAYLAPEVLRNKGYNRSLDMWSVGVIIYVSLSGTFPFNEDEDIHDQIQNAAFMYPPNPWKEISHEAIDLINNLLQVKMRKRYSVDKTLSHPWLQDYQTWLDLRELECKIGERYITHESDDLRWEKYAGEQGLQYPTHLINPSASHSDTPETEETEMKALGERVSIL

EGFR(h) = EGFR(h) (Homo sapiens, UniProt P00533); assay: Eurofins kinase assay
Chain of EGFR(h) (P00533 25-1210): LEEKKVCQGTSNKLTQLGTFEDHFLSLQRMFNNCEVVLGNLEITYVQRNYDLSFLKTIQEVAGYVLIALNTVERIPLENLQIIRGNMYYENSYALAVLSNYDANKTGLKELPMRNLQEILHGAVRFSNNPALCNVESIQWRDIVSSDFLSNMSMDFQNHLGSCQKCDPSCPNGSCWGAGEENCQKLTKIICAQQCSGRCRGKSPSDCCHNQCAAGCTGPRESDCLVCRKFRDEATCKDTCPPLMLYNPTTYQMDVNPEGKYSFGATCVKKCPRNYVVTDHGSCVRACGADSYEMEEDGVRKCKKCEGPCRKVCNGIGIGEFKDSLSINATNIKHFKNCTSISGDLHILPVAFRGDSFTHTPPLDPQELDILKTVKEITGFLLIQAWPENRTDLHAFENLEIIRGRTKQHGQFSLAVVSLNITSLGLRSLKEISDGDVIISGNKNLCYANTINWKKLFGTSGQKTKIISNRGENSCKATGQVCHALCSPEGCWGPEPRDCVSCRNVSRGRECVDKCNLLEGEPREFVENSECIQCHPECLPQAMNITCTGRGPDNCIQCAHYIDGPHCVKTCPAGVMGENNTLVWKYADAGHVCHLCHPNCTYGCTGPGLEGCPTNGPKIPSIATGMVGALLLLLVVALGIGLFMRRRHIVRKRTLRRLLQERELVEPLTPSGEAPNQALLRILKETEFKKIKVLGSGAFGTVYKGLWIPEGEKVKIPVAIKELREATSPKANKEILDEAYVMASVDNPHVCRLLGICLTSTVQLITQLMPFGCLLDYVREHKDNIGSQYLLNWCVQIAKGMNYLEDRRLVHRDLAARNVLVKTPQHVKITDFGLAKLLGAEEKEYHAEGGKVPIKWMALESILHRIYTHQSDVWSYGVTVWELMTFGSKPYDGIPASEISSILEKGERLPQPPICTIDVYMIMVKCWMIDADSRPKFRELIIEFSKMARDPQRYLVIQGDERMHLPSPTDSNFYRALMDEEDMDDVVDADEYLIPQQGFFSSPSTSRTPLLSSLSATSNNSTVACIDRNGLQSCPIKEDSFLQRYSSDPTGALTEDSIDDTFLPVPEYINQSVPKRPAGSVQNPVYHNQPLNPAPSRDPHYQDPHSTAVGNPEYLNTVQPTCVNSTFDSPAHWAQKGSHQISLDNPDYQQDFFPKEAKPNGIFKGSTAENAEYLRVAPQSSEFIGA

GSK3β(h) = GSK3β(h) (Homo sapiens, UniProt P49841); assay: Eurofins kinase assay
Chain of GSK3β(h) (P49841 whole entry): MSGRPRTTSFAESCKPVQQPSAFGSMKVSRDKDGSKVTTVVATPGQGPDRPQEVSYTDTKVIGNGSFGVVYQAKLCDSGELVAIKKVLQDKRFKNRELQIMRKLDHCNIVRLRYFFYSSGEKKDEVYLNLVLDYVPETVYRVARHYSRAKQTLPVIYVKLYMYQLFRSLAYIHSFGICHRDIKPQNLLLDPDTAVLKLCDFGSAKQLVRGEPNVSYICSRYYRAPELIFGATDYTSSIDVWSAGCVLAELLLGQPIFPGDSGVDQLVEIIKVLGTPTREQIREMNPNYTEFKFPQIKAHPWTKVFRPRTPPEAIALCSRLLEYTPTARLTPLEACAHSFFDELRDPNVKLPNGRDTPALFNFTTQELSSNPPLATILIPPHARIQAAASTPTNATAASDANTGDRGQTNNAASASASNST

CDK3/cyclinE(h) = CDK3/cyclinE(h) (Homo sapiens, UniProt Q00526); assay: Eurofins kinase assay
MAPK2(h) = MAPK2(h) (Homo sapiens, UniProt P28482); assay: Eurofins kinase assay
EphB2(h) = EphB2(h) (Homo sapiens, UniProt P29323); assay: Eurofins kinase assay
CK2(h) = CK2(h) (Homo sapiens, UniProt P68400); assay: Eurofins kinase assay
PKCα(h) = PKCα(h) (Homo sapiens, UniProt P17252); assay: Eurofins kinase assay
HCT116 (KRAS G13D) = assay: Cell proliferation assay (CellTiter-Glo); details: Homo sapiens, HCT-116, 72 h
Method: (§1) To assess cell viability, the CellTiter-Glo Luminescent Cell Viability Assay Reagent (Promega, Fitchburg, WI, USA) was added to each well. The assay measured ATP levels as an indicator of cell viability. All data points were normalized to the control samples treated with dimethyl sulfoxide when determining IC50 values. Statistical calculations and data analysis, including IC50 determination, were performed using GraphPad Prism software.

SW620 (KRAS G12V) = assay: Cell proliferation assay (CellTiter-Glo); details: Homo sapiens, SW-620, 72 h
Method: as §1

In the case of O=C(Nc1cc(Nc2ncccc2-c2ncnc3[nH]cnc23)ccc1F)c1cc(C(F)(F)F)cc(C(F)(F)F)c1 [SJ-C1044, N-(5-(3-(9H-purin-6-yl)pyridin-2-ylamino)-2-fluorophenyl)-3,5-bis(trifluoromethyl)benzamide], the “CD31 staining (angiogenesis)” value (MC38 tumor tissue) is reported as “reduced”, the “CD163+ or CD206+ staining (M2 macrophages)” value (MC38 tumor tissue) is reported as “significant decrease” and the “F4/80+ staining intensity (pan macrophage marker)” value (MC38 tumor tissue) is reported as “notably reduced”. For the same compound, the “infiltration of CD8+ T cells” value (MC38 tumor tissue) was “increase”, the “population of FOXP3+ cells” value (MC38 tumor tissue) was “reducing” and the IL-10 protein expression (IL-10) was 33 % CTL. For the same compound, the “toxicity and weight loss” value [1] was “no signs of toxicity or significant weight loss”, the inhibition at 10 µM (BRAF) was 68% and the inhibition at 10 µM (FGFR3(h)) was 48%. It also gave an inhibition at 10 µM [2] of 37%, an inhibition at 10 µM (Yes(h)) of 17% and an inhibition at 10 µM (PKBα(h)) of 15%. For the same compound, the inhibition at 10 µM (ATM(h)) was 12%, the inhibition at 10 µM (CDK7/cyclinH/MAT1(h)) was 10% and the inhibition at 10 µM (Rsk3(h)) was 4%. It also gave an inhibition at 10 µM (PKBγ(h)) of 2%, an inhibition at 10 µM (MEK1(h)) of 1% and an inhibition at 10 µM (PKBβ(h)) of 1%. It also gave an inhibition at 10 µM (PKCζ(h)) of 1%, an inhibition at 10 µM (CHK2(h)) of 0% and an inhibition at 10 µM (Bmx(h)) of -1%. For the same compound, the inhibition at 10 µM (MAPK1(h)) was -3%, the inhibition at 10 µM (PKCμ(h)) was -3% and the inhibition at 10 µM (EGFR(h)) was -4%. The inhibition at 10 µM (GSK3β(h)) was -5%, the inhibition at 10 µM (CDK3/cyclinE(h)) was -7% and the inhibition at 10 µM (MAPK2(h)) was -7%. For the same compound, the inhibition at 10 µM (EphB2(h)) was -8%, the inhibition at 10 µM (CK2(h)) was -11% and the inhibition at 10 µM (PKCα(h)) was -14%. The GI50 (HCT116 (KRAS G13D)) was 160 nM and the GI50 (SW620 (KRAS G12V)) was 628 nM.
